Test results from US20220152031A1, “PYRIDAZINONES AND METHODS OF USE THEREOF” (Goldfinch Bio, Inc., priority 2019, published 2022).
Entries after “also recorded” stand apart in the source; their conditions may differ.

Tests used:
AT1R transgenic rats = assay: AT1R transgenic rat model of FSGS; assay type: in vivo; details: oral once daily 3 mg/kg or 10 mg/kg; UniNX and AngII infusion; up to 3 weeks of treatment
Protocol: The AT1R transgenic rat model of FSGS is characterized by podocyte-specific expression of human AT1R. […] See Zhou et al., Science (2017), vol. 358 (6368), 1332-1336. In the present study, pathophysiology in AT1R transgenic rats was accelerated with unilateral nephrectomy (UniNX) and minipump AngII infusion. Compound 100 was dosed orally once daily at 3 mg/kg or 10 mg/kg, and the urine protein creatinine ratio was determined at −1, 0, 1, 2, and 3 weeks of treatment.

PAN-injured rats = assay: Puromycin aminonucleoside (PAN)-induced glomerular injury in rats; assay type: in vivo, Sprague-Dawley rats; details: for albuminuria: PAN model of glomerular injury in rats
From the text: The objective of this study is to evaluate the dose-dependent effects of compound 100 on PAN induced glomerular kidney injury as indexed by albuminuria. Eighty (80), male Sprague-Dawley rats weighing approximately 125-150 g and approximately 5-6 weeks of age were acquired from Charles River. They were fed a standard chow diet (Harlan 8640), housed under standard conditions, and allowed to acclimate for at least 5 days prior to study inception. On D-2, rats were placed into weight-matched treatment groups and were placed, individually housed, into metabolic cages for the balance of the study. A 24 hour baseline (Day 0) urine was collected followed by a baseline blood collection via conscious tail venous puncture. Rats were then administered vehicle or test article. Two (2) hours following administration of vehicle or test agent on Day 0, rats received an administration of (5 mL/kg, s.c.) vehicle (sterile saline) or puromycin aminonucleoside (PAN; challenge agent; 75 mg/kg) dissolved in vehicle. Intermittent (Day 4, 7 and 10) 24 hour urine volumes were determined and samples (4 samples/animal/time point; 0.5 mL/sample) were obtained. Additionally, intermittent (Day 4, 7 and 10) blood samples were collected via conscious tail venous puncture 2 hours±1 minute post-AM dose. Immediately following the last blood collection, rats were anesthetized with isoflurane, tissues harvested, and animals sacrificed. Endpoint kidney weights and indices were obtained. Urine samples were immediately flash-frozen in liquid N2 and stored at −80° C. until analyzed. Whole blood samples collected on K3EDTA were processed appropriately for the production of plasma for PK measurements.

[1] = Drug exposure in human kidney organoid implanted under the rat kidney capsule after oral dosing; assay type: in vivo; details: 10 mg/kg PO QD for 3 consecutive days, necropsy after 3 days
Protocol: Initially a space was created under the kidney capsule with angled fine forceps. A 22G blunt needle was used to further open the space under the kidney capsule. An angled cut was made at the tip of the 18G feeding tube attached to a 1 mL syringe. The 18G feeding tube was pre-wet with APEL2 medium, and one organoid from the dish containing APEL2 with the 18G feeding tube was carefully aspirated, keeping the entire organoid close to the tip of the 18G feeding tube, and not aspirating organoid into the syringe. An 18G feeding tube containing the organoid was inserted into the space created under the kidney capsule, and the organoid was injected towards the back end of the created space. The animal was closed, and then the procedure was repeated on the second kidney. After the second transplant, the animal was closed again and allowed to recover from anesthesia. The next organoid was started to be removed from TW (2+1 spare organoids) upon closing of animal after second kidney capsule transplant.
Compound 100 was administered to animals after transplant orally, once-daily as follows:
After 3 days, necropsy was performed to study distribution of compound 100 in the animal.

SMILES | efficacy (urine protein creatinine ratio) (AT1R transgenic rats) | urinary albumin excretion (PAN-injured rats; 30 mg/kg BID dosing, at 7 and 10 days) | urinary albumin excretion (PAN-injured rats; 30 mg/kg QD dosing, at 10 days) | urinary albumin excretion (PAN-injured rats; 30 mg/kg once (QD) or twice (BID) daily, following injury with PAN) | albuminuria (PAN-injured rats) | drug exposure in implanted organoid [1]
O=c1[nH]ncc(N2CCc3c(ncnc3Oc3ccc(F)cc3C(F)(F)F)C2)c1Cl [Compound 100, 4-chloro-5-[4-[4-fluoro-2-(trifluoromethyl)phenoxy]-5H,6H,7H,8H-pyrido[3,4-d]pyrimidin-7-yl]-2,3-dihydropyridazin-3-one] | efficacious | Significant reductions | Significant reductions | reduced urinary albumin excretion | effective in reducing albuminuria | drug exposure in the implanted organoid; also recorded: drug exposure in an implanted organoid
NC(=O)c1ncn([C@@H]2O[C@H](CO)[C@@H](O)[C@H]2O)c1O [Mizoribine, mizoribine, reference compound] | – | – | – | – | efficacious in reducing albuminuria | –
